Measured values: patent US6046190A, “Hydroxyethylamino sulphonamides useful as retroviral protease inhibitors” (G.D. Searle & Co., priority 1996, dated 2000)
Read-outs that look alike come from different tables or passages of the source.

Experiments:
HIV-1 in CEM cells = assay: HIV inhibition assay of acutely infected CEM cells (tetrazolium/MTT colorimetric), antiviral efficacy; format: cell-based; details: Human immunodeficiency virus 1, CCRF-CEM, 168 h
From the text: (§1) Methods, 20, 309-321 (1988).
(§2) [table 42: the next 8 blocks are its lines as printed, fixed-width]

[1] = Intrinsic toxicity of test compound in uninfected CEM cells (MTT); details: human
From the text: as §1, §2

HIV protease = target: T1, HIV protease (Human immunodeficiency virus type 1 group M subtype B, UniProt P04585); assay: biochemical; format: biochemical
T1 construct: HIV protease is diluted in the assay buffer to a final enzyme concentration of 12.3 nanomolar, based on a molecular weight of 10,780
Method: The enzyme method is described below. […] The positive control is MVT-101 (Miller, M. et al, Science, 246, 1149 (1989)]. The assay conditions are as follows:
20 mM sodium phosphate, pH 6.4
The above described substrate is dissolved in DMSO, then diluted 10 fold in assay buffer. Final substrate concentration in the assay is 80 μM.
The final concentration of DMSO is 14% and the final concentration of glycerol is 18%. The test compound is dissolved in DMSO and diluted in DMSO to 10× the test concentration; 10 μl of the enzyme preparation is added, the materials mixed and then the mixture is incubated at ambient temperature for 15 minutes. The enzyme reaction is initiated by the addition of 40μl of substrate. The increase in fluorescence is monitored at 4 time points (0, 8, 16 and 24 minutes) at ambient temperature. Each assay is carried out in duplicate wells.

[2] = Table 21, CEM cells, 1000 TCID50 HIV-1, 7 days, read-out: EC50
[3] = Table 21, above-described enzyme assay
[4] = Table 19B, calculated IC50, enzyme 12.3 nanomolar, substrate 80 μM, pH 6.4
[5] = Table 20, calculated IC50, enzyme 12.3 nanomolar, substrate 80 μM, pH 6.4

Compound: CC(C)CCN(C[C@@H](O)[C@H](Cc1ccccc1)NC(=O)OCc1ccccc1)S(=O)(=O)c1ccccc1 [Example 1]
- EC50 (HIV-1 in CEM cells): 55 nM
- CC50 at 168 h [1]: 27 nM

Compound: CCC(C)[C@H](NC(=O)CN(C)C)C(=O)N[C@@H](Cc1ccccc1)[C@H](O)CN(CC(C)C)S(=O)(=O)c1ccc(OC)cc1 (some centres unmarked) [Example 13]
- EC50 (HIV-1 in CEM cells): < 16 nM

Compound: CCC(C)[C@H](NC(=O)CNC)C(=O)N[C@@H](Cc1ccccc1)[C@H](O)CN(CCC(C)C)S(=O)(=O)c1ccccc1 (some centres unmarked) [Example 15]
- EC50 (HIV-1 in CEM cells): 38 nM

Compound: CC(C)CN(C[C@@H](O)[C@H](Cc1ccccc1)NC(=O)OCc1cccnc1)S(=O)(=O)c1ccc(Cl)cc1 [Example 18]
- EC50 (HIV-1 in CEM cells): 154 nM

Compound: CC(C)CN(C[C@@H](O)[C@H](Cc1ccccc1)NC(=O)OCc1cccnc1)S(=O)(=O)c1ccc([N+](=O)[O-])cc1 [Example 19]
- EC50 (HIV-1 in CEM cells; [2]): 377 nM

Compound: CC(C)CN(C[C@@H](O)[C@H](Cc1ccccc1)NC(=O)OCc1cccnc1)S(=O)(=O)c1ccc(O)cc1 [Example 20]
- EC50 (HIV-1 in CEM cells; [2]): 13 nM

Compound: COc1ccc(S(=O)(=O)N(CC(C)C)C[C@@H](O)[C@H](Cc2ccccc2)NC(=O)OCc2cncnc2)cc1 [Example 23]
- EC50 (HIV-1 in CEM cells; [2]): 8 nM

Compound: COc1ccc(S(=O)(=O)N(CC(C)C)C[C@@H](O)[C@H](Cc2ccccc2)NC(=O)c2ccncc2)cc1 [Example 33]
- EC50 (HIV-1 in CEM cells): 68 nM

Compound: COc1ccc(S(=O)(=O)N(CC(C)C)C[C@@H](O)[C@H](Cc2ccccc2)NC(=O)c2cccnc2)cc1 [Example 34]
- EC50 (HIV-1 in CEM cells): 188 nM

Compound: COc1ccc(S(=O)(=O)N(CC(C)C)C[C@@H](O)[C@H](Cc2ccccc2)NC(=O)c2cccc(N(C)C)c2C)cc1 [Example 36]
- EC50 (HIV-1 in CEM cells; [2]): 898 nM

Compound: Cc1ccccc1C(=O)N[C@@H](Cc1ccccc1)[C@H](O)CN(CC(C)C)S(=O)(=O)c1ccc(O)cc1 [Example 37]
- EC50 (HIV-1 in CEM cells; [2]): < 20 nM

Compound: COc1ccc(S(=O)(=O)N(CC(C)C)C[C@@H](O)[C@H](Cc2ccccc2)NC(=O)OCc2ccc(N)nc2)cc1 [Example 38]
- EC50 (HIV-1 in CEM cells; [2]): 1100 nM

Compound: COc1ccc(S(=O)(=O)N(CC(C)C)C[C@@H](O)[C@H](Cc2ccccc2)NC(=O)OCc2ccc(O)nc2)cc1 [Example 39]
- EC50 (HIV-1 in CEM cells; [2]): 269 nM

Compound: CC(C)CN(C[C@@H](O)[C@H](Cc1ccccc1)NC(=O)OCc1cncnc1)S(=O)(=O)c1ccc(O)cc1 [Example 41]
- EC50 (HIV-1 in CEM cells): 11 nM

Compound: CC(C)CN(C[C@@H](O)[C@H](Cc1ccccc1)NC(=O)O[C@H]1CCSC1)S(=O)(=O)c1ccc(O)cc1 [Example 42]
- EC50 (HIV-1 in CEM cells; [2]): < 20 nM

Compound: CC(C)CN(C[C@@H](O)[C@H](Cc1ccccc1)NC(=O)O[C@H]1CCS(=O)(=O)C1)S(=O)(=O)c1ccc(O)cc1 [Example 43]
- EC50 (HIV-1 in CEM cells; [2]): 63 nM

Compound: COc1ccc(S(=O)(=O)N(CC(C)C)C[C@@H](O)[C@H](Cc2ccccc2)NC(=O)O[C@H]2CCOC2)cc1 [Example 44]
- EC50 (HIV-1 in CEM cells; [2]): 8 nM

Compound: CC(C)CN(C[C@@H](O)[C@H](Cc1ccccc1)NC(=O)O[C@H]1CCOC1)S(=O)(=O)c1ccc(O)cc1 [Example 45]
- EC50 (HIV-1 in CEM cells): 5 nM

Compound: COc1ccc(S(=O)(=O)N(CC(C)C)C[C@@H](O)[C@H](Cc2ccccc2)NC(=O)O[C@H]2CCSC2)cc1 [Example 46]
- EC50 (HIV-1 in CEM cells; [2]): < 20 nM

Compound: COc1ccc(S(=O)(=O)N(CC(C)C)C[C@@H](O)[C@H](Cc2ccccc2)NC(=O)c2cccc([N+](=O)[O-])c2C)cc1 [Example 48]
- EC50 (HIV-1 in CEM cells; [2]): 210 nM

Compound: COc1ccc(S(=O)(=O)N(CC(C)C)C[C@@H](O)[C@H](Cc2ccccc2)NC(=O)c2cccc(N)c2C)cc1 [Example 49]
- IC50 (HIV protease; [3]): 6 nM
- EC50 (HIV-1 in CEM cells; [2]): < 20 nM

Compound: COc1ccc(S(=O)(=O)N(CC(C)C)C[C@@H](O)[C@H](Cc2ccccc2)NC(=O)c2ccc(N)cc2C)cc1 [Example 51]
- IC50 (HIV protease; [3]): 9 nM
- EC50 (HIV-1 in CEM cells; [2]): < 20 nM

Compound: COc1ccc(S(=O)(=O)N(CC(C)C)C[C@@H](O)[C@H](Cc2ccccc2)NC(=O)c2ccc(N(C)C)cc2C)cc1 [Example 52]
- IC50 (HIV protease; [3]): > 100 nM

Compound: COc1ccc(S(=O)(=O)N(CC(C)C)C[C@@H](O)[C@H](Cc2ccccc2)NC(=O)c2cc(N)ccc2C)cc1 [Example 54]
- IC50 (HIV protease; [3]): 10 nM

Compound: COc1ccc(S(=O)(=O)N(CC(C)C)C[C@@H](O)[C@H](Cc2ccccc2)NC(=O)OCc2cncs2)cc1 [Example 56]
- EC50 (HIV-1 in CEM cells; [2]): 40 nM

Compound: CC(C)CN(C[C@@H](O)[C@H](Cc1ccccc1)NC(=O)OCc1cncs1)S(=O)(=O)c1ccc(O)cc1 [Example 57]
- EC50 (HIV-1 in CEM cells; [2]): < 20 nM

Compound: COc1ccc(S(=O)(=O)N(CC(C)C)C[C@@H](O)[C@H](Cc2ccccc2)NC(=O)OCc2ccoc2)cc1 [Example 58]
- EC50 (HIV-1 in CEM cells; [2]): 70 nM

Compound: COc1ccc(S(=O)(=O)N(CC(C)C)C[C@@H](O)[C@H](Cc2ccccc2)NC(=O)c2cccc(O)c2C)cc1 [Example 59]
- IC50 (HIV protease; [3]): 3 nM
- EC50 (HIV-1 in CEM cells; [2]): 22 nM

Compound: CC(C)CN(C[C@@H](O)[C@H](Cc1ccccc1)NC(=O)OCc1ccoc1)S(=O)(=O)c1ccc(N)cc1 [Example 60]
- EC50 (HIV-1 in CEM cells; [2]): 60 nM

Compound: CC(C)CN(C[C@@H](O)[C@H](Cc1ccccc1)NC(=O)OCc1cccnc1)S(=O)(=O)c1ccc2c(c1)OCO2 [Example 69]
- EC50 (HIV-1 in CEM cells): 68 nM

Compound: CC(C)CN(C[C@@H](O)[C@H](Cc1ccccc1)NC(=O)OCc1cncs1)S(=O)(=O)c1ccc2c(c1)OCO2 [Example 70]
- EC50 (HIV-1 in CEM cells; [2]): 30 nM

Compound: Cc1c(O)cccc1C(=O)N[C@@H](Cc1ccccc1)[C@H](O)CN(CC(C)C)S(=O)(=O)c1ccc2c(c1)OCO2 [Example 73]
- EC50 (HIV-1 in CEM cells; [2]): 22 nM

Compound: CC(C)CCN(C[C@@H](O)[C@H](Cc1ccccc1)NC(=O)C(NC(=O)OCc1ccccc1)C(C)(C)C)S(C)(=O)=O (some centres unmarked) [Table 3 Entry 1]
- IC50 (HIV protease; [4]): 81 nM

Compound: CNCC(=O)NC(C(=O)N[C@@H](Cc1ccccc1)[C@H](O)CN(CCC(C)C)S(=O)(=O)c1ccccc1)C(C)(C)C (some centres unmarked) [Table 3 Entry 6]
- IC50 (HIV protease; [4]): 1.8 nM

Compound: CC(C)CCN(C[C@@H](O)[C@H](Cc1ccccc1)NC(=O)C(NC(=O)CN(C)C)C(C)(C)C)S(=O)(=O)c1ccccc1 (some centres unmarked) [Table 3 Entry 8]
- IC50 (HIV protease; [4]): 3 nM

Compound: COc1ccc(S(=O)(=O)N(CC(C)C)C[C@@H](O)[C@H](Cc2ccccc2)NC(=O)C(NC(=O)CN(C)C)C(C)(C)C)cc1 (some centres unmarked) [Table 3 Entry 10]
- IC50 (HIV protease; [4]): 2.5 nM

Compound: COc1ccc(S(=O)(=O)N(CC(C)C)C[C@@H](O)[C@H](Cc2ccccc2)NC(=O)C2CCc3ccccc3C2)cc1 (some centres unmarked) [Table 5A Entry 4]
- IC50 (HIV protease): 10 nM

Compound: COc1ccc(S(=O)(=O)N(CC(C)C)C[C@@H](O)[C@H](Cc2ccccc2)NC(=O)c2ccc(C)cc2C)cc1 [Table 5A Entry 6]
- IC50 (HIV protease): 23 nM

Compound: COc1ccc(S(=O)(=O)N(CC(C)C)CC(O)C(Cc2ccccc2)NC(=O)c2cccnc2)cc1 (centres unmarked) [Table 5A Entry 9]
- IC50 (HIV protease; [5]): 67 nM

Compound: COc1ccc(S(=O)(=O)N(CC(C)C)CC(O)C(Cc2ccccc2)NC(=O)c2ccncc2)cc1 (centres unmarked) [Table 5A Entry 11]
- IC50 (HIV protease; [5]): 18 nM

Compound: COc1ccc(S(=O)(=O)N(CC(C)C)CC(O)C(Cc2ccccc2)NC(=O)c2ccccc2Cl)cc1 (centres unmarked) [Table 5A Entry 12]
- IC50 (HIV protease; [5]): 6 nM

Compound: COc1ccc(S(=O)(=O)N(CC(C)C)CC(O)C(Cc2ccccc2)NC(=O)c2ccccc2C(C)C)cc1 (centres unmarked) [Table 5A Entry 14]
- IC50 (HIV protease; [5]): 49 nM

Compound: COc1ccc(S(=O)(=O)N(CC(C)C)CC(O)C(Cc2ccccc2)NC(=O)c2ccccc2)cc1 (centres unmarked) [Table 5A Entry 25]
- IC50 (HIV protease; [5]): 14 nM

Compound: COc1ccc(S(=O)(=O)N(CC(C)C)CC(O)C(Cc2ccccc2)NC(=O)c2ccc(C)cc2)cc1 (centres unmarked) [Table 5A Entry 28]
- IC50 (HIV protease; [5]): 15 nM

Compound: COc1ccc(S(=O)(=O)N(CC(C)C)C[C@@H](O)[C@H](Cc2ccccc2)NC(=O)c2ccccc2OC)cc1 [Table 5A Entry 29]
- IC50 (HIV protease; [5]): 190 nM

Compound: COc1ccc(S(=O)(=O)N(CC(C)C)C[C@@H](O)[C@H](Cc2ccccc2)NC(=O)c2cccc(OC)c2)cc1 [Table 5A Entry 30]
- IC50 (HIV protease): 30 nM
